Measured values reported in patent US11479539B2, “Small molecule modulators of the BTB domain of Keap1” (MedImmune Limited, priority 2017, dated 2022).

Biological target: Keap1 (Homo sapiens (Human), UniProt Q14145)
Experiment: HEK293 ARE luciferase assay
Assay type: cell-based
Settings: HEK-293 ARE firefly luciferase transiently transfected cells; 18 h incubation; mean of 1 to 20 individual measurements
Procedure, shortened: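 Transiently transfected HEK-293 ARE firefly luciferase cells (10,000/well, DMEM with 10% FCS) exposed to compound, 10-point curve from 100 μM top, 0.3% DMSO, 18 h at 37 °C. SteadyGlo luminescence; activity normalised to 30 μM tBHQ (stimulator) and DMSO (neutral), activity threshold 50; means of 1-20 measurements.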

Keap1, sequence (Q14145 whole entry): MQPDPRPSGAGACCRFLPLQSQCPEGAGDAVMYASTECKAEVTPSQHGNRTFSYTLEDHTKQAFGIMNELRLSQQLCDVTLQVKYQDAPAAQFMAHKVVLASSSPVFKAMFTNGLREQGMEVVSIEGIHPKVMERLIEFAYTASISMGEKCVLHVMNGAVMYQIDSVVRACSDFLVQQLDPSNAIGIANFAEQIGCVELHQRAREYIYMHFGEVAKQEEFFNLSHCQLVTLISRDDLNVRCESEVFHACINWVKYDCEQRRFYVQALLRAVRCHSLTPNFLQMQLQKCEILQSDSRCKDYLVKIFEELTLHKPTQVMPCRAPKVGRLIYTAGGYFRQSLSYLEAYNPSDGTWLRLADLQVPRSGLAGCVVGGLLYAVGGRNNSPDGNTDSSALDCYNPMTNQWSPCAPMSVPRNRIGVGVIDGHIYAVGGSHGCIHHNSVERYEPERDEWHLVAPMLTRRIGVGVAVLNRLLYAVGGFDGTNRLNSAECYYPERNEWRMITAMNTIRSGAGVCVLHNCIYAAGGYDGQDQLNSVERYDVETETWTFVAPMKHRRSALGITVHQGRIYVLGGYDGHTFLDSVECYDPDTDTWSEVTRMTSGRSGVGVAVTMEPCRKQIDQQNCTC

First: COC1(c2ncc(F)cc2-c2sc(C)nc2C)C=C(C#N)C(=O)C(C)(C)C1 (single isomer, unassigned) [Compound 93, 3-[3-(2,4-dimethylthiazol-5-yl)-5-fluoro-2-pyridyl]-3-methoxy-5,5-dimethyl-6-oxo-cyclohexene-1-carbonitrile]
Second: COC1(c2ncc(F)cc2-c2cccn(C)c2=O)C=C(C#N)C(=O)C(C)(C)C1 (single isomer, unassigned) [Compound 75, 3-[5-fluoro-3-(1-methyl-2-oxo-3-pyridyl)-2-pyridyl]-3-methoxy-5,5-dimethyl-6-oxo-cyclohexene-1-carbonitrile]
The EC50 of the first is 7.2-fold lower: 5 nM for the first, 36 nM for the second. The first is the more potent here.

Compared with `COc1ccccc1-c1cccc(C2(OC)C=C(C#N)C(=O)C(C)(C)C2)n1` (centres unmarked) [Compound 119, 3-methoxy-3-[6-(2-methoxyphenyl)pyridin-2-yl]-5,5-dimethyl-6-oxocyclohex-1-ene-1-carbonitrile], `COC1(c2nccc3ccccc23)C=C(C#N)C(=O)C(C)(C)C1` (centres unmarked) [Compound 4, 3-(1-isoquinolyl)-3-methoxy-5,5-dimethyl-6-oxo-cyclohexene-1-carbonitrile] is 8.1-fold higher in EC50: 141 nM for the first, 1140 nM for the second.

With `COC1(c2ncc(F)cc2-c2ccc3nccn3c2)C=C(C#N)C(=O)C(C)(C)C1` (single isomer, unassigned) [Compound 226, 3-[5-fluoro-3-(imidazo[1,2-a]pyridin-6-yl)pyridin-2-yl]-3-methoxy-5,5-dimethyl-6-oxocyclohex-1-ene-1-carbonitrile] the EC50 was 13 nM.
